The values below come from patent publication US20220000919A1, “PLACENTAL DERIVED NATURAL KILLER CELLS FOR TREATMENT OF CORONAVIRUS INFECTIONS” (Celularity Inc., priority 2020, published 2022).

For data set [1], the system named is CD34+ cells. Description: NK culture of CD34+ cells with CRL compounds: cell expansion and NK differentiation. It counts as cell-based, human. The conditions noted are these: for expansion, differentiation and cytotoxicity profiles compared to SRI / CD56+/CD11a+ subpopulation compared to SRI: PNK-007 culture, 10 μM; for CD34 cell expansion at Day 14 of the culture: compound at 10 μM; for cell expansion compared to SRI positive control at Day 35: compound and SRI at 10 μM; for supported NK (PNK-007) expansion and differentiation: compound at 10 μM during the first 14 days of culture. As to the method:
Stage 1 medium: 90% Stem Cell Growth Medium (SCGM) (CellGro®), 10% Human Serum-AB, supplemented with 25 ng/mL or 250 ng/mL recombinant human thrombopoietin (TPO), 25 ng/mL recombinant human Flt3L, 27 ng/mL recombinant human stem cell factor (SCF), 25 ng/mL recombinant human IL-7, 0.05 ng/mL or 0.025 ng/mL recombinant human IL-6, 0.25 ng/mL or 0.125 ng/mL recombinant human granulocyte colony-stimulating factor (G-CSF), 0.01 ng/mL or 0.025 ng/mL recombinant human granulocyte-macrophage colony-stimulating factor (GM-CSF), 0.10% gentamicin, and 1 to 10 μm StemRegenin-1 (SR-1) or other stem cell mobilizing agent.
Stage 2 medium: 90% SCGM, 10% Human Serum-AB, supplemented with 25 ng/mL recombinant human Flt3L, 27 ng/mL recombinant human SCF, 25 ng/mL recombinant human IL-7, 20 ng/mL recombinant human IL-15, 0.05 ng/mL or 0.025 ng/mL recombinant human IL-6, 0.25 ng/mL or 0.125 ng/mL recombinant human granulocyte colony-stimulating factor (G-CSF), 0.01 ng/mL or 0.025 ng/mL recombinant human granulocyte-macrophage colony-stimulating factor (GM-CSF), 0.10% gentamicin, and 1 to 10 μm SRI or other stem cell mobilizing agent.
Stage 3 medium: 90% STEMMACS™, 10% Human Serum-AB, 0.025 mM 2-mercaptoethanol (55 mM), supplemented with 22 ng/mL recombinant human SCF, 1000 U/mL recombinant human IL-2, 20 ng/mL recombinant human IL-7, 20 ng/mL recombinant human IL-15, 0.05 ng/mL or 0.025 ng/mL recombinant human IL-6, 0.25 ng/mL or 0.125 ng/mL recombinant human granulocyte colony-stimulating factor (G-CSF), 0.01 ng/mL or 0.025 ng/mL recombinant human granulocyte-macrophage colony-stimulating factor (GM-CSF), and 0.10% gentamicin.
Cells are seeded at Day 0 at 3×10^4 cells/mL in Stage 1 media, and cells are tested for purity by a CD34+ and CD45+ count and viability by 7AAD staining. At Day 5 cells are counted and seeded to a concentration of 1×10^5 cells/mL with Stage 1 medium. At Day 7 cells are counted and seeded to a concentration of 1×10^5 cells/mL with Stage 1 medium.
At Day 10, cells are counted and seeded to a concentration of 1×10^5 cells/mL in Stage 2 medium. At Day 12, cells are counted and seeded to a concentration of 3×10^5 cells/mL in Stage 2 medium. At Day 14, cells are counted and seeded in Stage 3 medium. Cells are maintained in Stage 3 media until day 35.
UCB CD34+ cells were cultivated in presence of cytokines including thrombopoietin, SCF, Flt3 ligand, IL-7, IL-15 and IL-2 for 35 days to produce three-stage NK cells, as described in Example 1. Multi-color flow cytometry was used to determine the phenotypic characteristics of three-stage NK cells.
(§1) For biological testing, the compounds were provided to culture to evaluate their effects on NK cell expansion and differentiation. Specifically, donors of CD34+ cells (StemCell Technology) were thawed and expanded in vitro following NK culture protocol. During the first 14 days of the culture, each CRL compounds was dissolved in DMSO and added to the culture at 10 μM concentration. SRI (at 10 μM) served as a positive control compound, while DMSO alone without any compound served as a negative control. At the end of the culture on Day 35, cell expansion, natural killer (NK) cell differentiation and cytotoxicity of the cells against K562 tumor cell line were characterized. Due to the large number of the compounds, the testing was performed in two experiments, CRL1-11 and CRL 12-22. The same donors were used for each experiment. Positive and negative controls were also included in both experiments.

In data set [2] the test system is K562 tumor cells. Description: Cytotoxicity assay of compound cultured cells against K562 tumor cells. Type of data set: cell-based. Conditions: K562, 10:1 effector to target ratio. On the procedure:
as §1
Cytotoxicity assay was run using compound cultured cells against K562 tumor cells at 10:1 effector to target ratio (FIG. 5) to evaluate cell functions.

Molecules are shown by their SMILES.

`Fc1cncc(-c2nc(NCCc3c[nH]c4ccccc34)c3occc3n2)c1` [CRL19, N-(2-(1H-indol-3-yl)ethyl)-2-(5-fluoropyridin-3-yl)furo[3,2-d]pyrimidin-4-amine]: in data set [1], the “expansion, differentiation and cytotoxicity profiles compared to SRI” value was “very similar expansion, differentiation and cytotoxicity profiles as SRI”; the “CD34 cell expansion at Day 14 of the culture” value (“CD34 cell expansion” for short) is recorded as “highest CD34 cell expansion”.
In the case of `CC(C)c1csc2c(NCCc3c[nH]c4ccccc34)nc(-c3cncc(C#N)c3)nc12` [CRL17, 5-(4-((2-(1H-indol-3-yl)ethyl)amino)-7-isopropylthieno[3,2-d]pyrimidin-2-yl)nicotinonitrile], in data set [1], the “CD56+/CD11a+ subpopulation compared to SRI” value is “increased CD56+/CD11a+ subpopulation” and the “cell expansion compared to SRI positive control at Day 35” value was “slightly less expansion compared to SRI”. The “killing activities of cultured cells compared to those cultured with SRI” value in data set [2] is “increased killing activities of the cells”.
The matching figures for `Cc1cncc(-c2nc(NCCc3c[nH]c4ccccc34)c3scc(C(C)C)c3n2)c1` [CRL21, N-(2-(1H-indol-3-yl)ethyl)-7-isopropyl-2-(5-methylpyridin-3-yl)thieno[3,2-d]pyrimidin-4-amine]: “increased CD56+/CD11a+ subpopulation”, “slightly less expansion compared to SRI” and “increased killing activities of the cells”.
Regarding `Cc1cncc(-c2nc(NCCc3c[nH]c4ccccc34)c3occc3n2)c1` [CRL20, N-(2-(1H-indol-3-yl)ethyl)-2-(5-methylpyridin-3-yl)furo[3,2d]pyrimidin-4-amine], in data set [1], the “expansion, differentiation and cytotoxicity profiles compared to SRI” value is “very similar expansion, differentiation and cytotoxicity profiles as SRI”; the “CD34 cell expansion” value is “highest CD34 cell expansion”.
Take `CCC(C)Nc1cc(-c2cncc(C#N)c2)nc(NCCc2c[nH]c3ccccc23)n1` (centres unmarked) [CRL7, 5-(2-((2-(1H-indol-3-yl)ethyl)amino)-6-(sec-butylamino)pyrimidin-4-yl)nicotinonitrile]: the “supported NK (PNK-007) expansion and differentiation” value in data set [1] was “all the compounds except CRL7 and CRL13 supported PNK-007 expansion and differentiation”.
For `N#Cc1cncc(-c2nc(NCCc3c[nH]c4ccccc34)c3occc3n2)c1` [CRL22, 5-(4-((2-(1H-indol-3-yl)ethyl)amino)furo[3,2-d]pyrimidin-2-yl)nicotinonitrile], in data set [1], the “expansion, differentiation and cytotoxicity profiles compared to SRI” value is “very similar expansion, differentiation and cytotoxicity profiles as SRI”; the “CD34 cell expansion” value is given as “highest CD34 cell expansion”.
Consider `CCC(C)Nc1nc(NCCc2c[nH]c3ccccc23)c2ccccc2n1` (centres unmarked) [CRL13, N^4-(2-(1H-indol-3-yl)ethyl)-N^2-(sec-butyl)quinazoline-1,4-diamine], for which the “supported NK (PNK-007) expansion and differentiation” value in data set [1] was “all the compounds except CRL7 and CRL13 supported PNK-007 expansion and differentiation”.
For the compound `CC(C)c1csc2c(NCCc3c[nH]c4ccccc34)nc(-c3cncc(F)c3)nc12` [CRL18, N-(2-(1H-indol-3-yl)ethyl)-2-(5-fluoropyridin-3-yl)-7-isopropylthieno[3,2-d]pyrimidin-4-amine], in data set [1], the “CD56+/CD11a+ subpopulation compared to SRI” value is listed as “increased CD56+/CD11a+ subpopulation” and the “cell expansion compared to SRI positive control at Day 35” value was “slightly less expansion compared to SRI”. The “killing activities of cultured cells compared to those cultured with SRI” value in data set [2] is on record as “increased killing activities of the cells”.
